{
  "source": "patent US12226441B2",
  "about": "“Composition for inhibiting intestinal permeability, treating leaky gut related diseases and/or preventing leaky gut related diseases” (priority 2020, dated 2025)",
  "key": {"DSS-induced mice": {"test_system": "DSS-induced mice", "assay": "dextran sulfate sodium salt (DSS) induced abnormal intestinal permeability animal model, serum FITC-dextran", "assay_type": "in vivo, C57BL/6 male mice", "settings": "positive control, 0.5% (v/v) DSS, 200 μM, 14 days, vs negative control", "experimental": "The animals used in this experiment were 5-6 week old C57BL/6 male mice (purchased from the National Laboratory Animal Center).\nThe experiment was performed by an animal model of dextran sulfate sodium salt (DSS) induced abnormal intestinal permeability (Laroui H, Ingersoll S A, Liu H C, Baker M T, Ayyadurai S, et al. (2012) Dextran Sodium Sulfate (DSS) Induces Colitis in Mice by Forming Nano-Lipocomplexes with Medium-Chain-Length Fatty Acids in the Colon. PLOS ONE 7(3): e32084. doi:10.1371/journal.pone.0032084).\nThe mice were divided into an untreated group (Naive), a negative control group (vehicle: water), a positive control group (5-aminosalicylic acid (5-ASA)) and 3 experiments groups (Sample 15B (Ganoderma extract+red jujube extract+lotus seed extract+lotus seed extract (the weight ratio of the respective herbal raw materials used to obtain the respective extracts is 3:1:1:1))). The mice in the untreated group were not treated in any way. […]\nThe FITC-dextran content in mouse serum was measured with a multifunctional microplate spectrometer (Molecular Device, FlexStation® 3) as an indicator of intestinal permeability."}, "TJP1": {"test_system": "TJP1", "assay": "real-time quantitative PCR of tight junction gene expression in rhamnolipid-induced Caco-2 cells", "assay_type": "cell-based, human", "settings": "positive control, 50 μM (18.6 μg/mL), rhamnolipid-induced Caco-2, vs negative control", "from_the_text": "(§1) Total ribonucleic acid (total RNA) of cells was isolated by Total RNA Purification Kit (GeneMark, Taichung, Taiwan). Using Maxima First Strand cDNA Synthesis Kit (Thermo Fisher Scientific), according to the manufacturer's operating procedures, the obtained total ribonucleic acid subjected to a reverse transcription polymerase chain reaction to reverse-transcript messenger ribonucleic acid (mRNA) into cDNA. Next, the cDNA samples were subjected to a real-time quantitative polymerase chain reaction to determine the expression levels of CLDN3, OCLN and TJP1 mRNA."}, "CLDN3": {"test_system": "CLDN3", "assay": "real-time quantitative PCR of tight junction gene expression in rhamnolipid-induced Caco-2 cells", "assay_type": "cell-based, human", "settings": "positive control, 50 μM (18.6 μg/mL), rhamnolipid-induced Caco-2, vs negative control", "from_the_text": "as §1"}, "OCLN": {"test_system": "OCLN", "assay": "real-time quantitative PCR of tight junction gene expression in rhamnolipid-induced Caco-2 cells", "assay_type": "cell-based, human", "settings": "positive control, 50 μM (18.6 μg/mL), rhamnolipid-induced Caco-2, vs negative control", "from_the_text": "as §1"}, "[1]": {"test_system": "mice with circadian disruption", "assay": "circadian disruption (insomnia) animal model, brainwave sleep cycle parameters", "assay_type": "in vivo, C57BL/6 male mice", "settings": "positive control, light-dark cycle 7 hours:7 hours, 2.5 mg/kg orally, Day 4, vs negative control", "procedure": "The animals used in this experiment were 8-week-old C57BL/6 male mice (purchased from the National Laboratory Animal Center).\nThe mice were subjected to a surgical operation to load electrodes on the skull to record brain waves. After a 7-day recovery period, the mice were reared for 2 weeks under a normal light-dark cycle of 12 hours: 12 hours, and the 24-hour brainwave changes of the mice were recorded as the basic point.\nDuring the feeding, the mice in the negative control group were given the same amount of sterile water, mice in the positive control group were given diazepam (2.5 mg/kg orally), and mice in the experimental group were given 200 mg/kg Sample 15B.\nThe 24-hour brainwave changes of mice were recorded on Day 4 after the circadian disruption to analyze sleep cycle parameters of the time proportions (%) of the rapid eye movement (REM) and non-rapid eye movement (NREM), etc."}},
  "data": [
    {"smiles": "Nc1ccc(O)c(C(=O)O)c1", "note": "[5-aminosalicylic acid]", "values": [
      {"measurement": "serum FITC-dextran concentration (intestinal permeability)", "setting": "DSS-induced mice", "value": "reduce the serum FITC-dextran concentration"}
    ]},
    {"smiles": "COc1ccc2cc3[n+](cc2c1OC)CCc1cc2c(cc1-3)OCO2", "note": "[berberine chloride]", "values": [
      {"measurement": "expression level of TJP1 gene", "setting": "TJP1", "value": "significantly increase"},
      {"measurement": "expression level of CLDN3 gene", "setting": "CLDN3", "value": "significantly increase"},
      {"measurement": "expression level of OCLN gene", "setting": "OCLN", "value": "significantly increase"}
    ]},
    {"smiles": "CN1C(=O)CN=C(c2ccccc2)c2cc(Cl)ccc21", "note": "[diazepam]", "values": [
      {"measurement": "time proportion of the non-rapid eye movement (NREM)", "setting": "[1]", "value": "significantly increase the time proportion of the non-rapid eye movement"}
    ]}
  ]
}
